Experimental findings from ChEMBL document CHEMBL3124925, “Further constituents of Galianthe thalictroides (Rubiaceae) and inhibition of DNA topoisomerases I and IIα by its cytotoxic β-carboline alkaloids” (Bioorg Med Chem Lett, 2014) are described below.

The structures appear in SMILES notation. Values after ≈ are worked out from the molar mass of the structure shown. Active and inactive are the calls of the source. The calls are words filed in the database; no cut-off is given here.

The target in assay [1] is DNA topoisomerase 2-alpha (Homo sapiens) (UniProt P11388). Conditions: 100 uM.
Sequence of DNA topoisomerase 2-alpha (Homo sapiens) (P11388 whole entry): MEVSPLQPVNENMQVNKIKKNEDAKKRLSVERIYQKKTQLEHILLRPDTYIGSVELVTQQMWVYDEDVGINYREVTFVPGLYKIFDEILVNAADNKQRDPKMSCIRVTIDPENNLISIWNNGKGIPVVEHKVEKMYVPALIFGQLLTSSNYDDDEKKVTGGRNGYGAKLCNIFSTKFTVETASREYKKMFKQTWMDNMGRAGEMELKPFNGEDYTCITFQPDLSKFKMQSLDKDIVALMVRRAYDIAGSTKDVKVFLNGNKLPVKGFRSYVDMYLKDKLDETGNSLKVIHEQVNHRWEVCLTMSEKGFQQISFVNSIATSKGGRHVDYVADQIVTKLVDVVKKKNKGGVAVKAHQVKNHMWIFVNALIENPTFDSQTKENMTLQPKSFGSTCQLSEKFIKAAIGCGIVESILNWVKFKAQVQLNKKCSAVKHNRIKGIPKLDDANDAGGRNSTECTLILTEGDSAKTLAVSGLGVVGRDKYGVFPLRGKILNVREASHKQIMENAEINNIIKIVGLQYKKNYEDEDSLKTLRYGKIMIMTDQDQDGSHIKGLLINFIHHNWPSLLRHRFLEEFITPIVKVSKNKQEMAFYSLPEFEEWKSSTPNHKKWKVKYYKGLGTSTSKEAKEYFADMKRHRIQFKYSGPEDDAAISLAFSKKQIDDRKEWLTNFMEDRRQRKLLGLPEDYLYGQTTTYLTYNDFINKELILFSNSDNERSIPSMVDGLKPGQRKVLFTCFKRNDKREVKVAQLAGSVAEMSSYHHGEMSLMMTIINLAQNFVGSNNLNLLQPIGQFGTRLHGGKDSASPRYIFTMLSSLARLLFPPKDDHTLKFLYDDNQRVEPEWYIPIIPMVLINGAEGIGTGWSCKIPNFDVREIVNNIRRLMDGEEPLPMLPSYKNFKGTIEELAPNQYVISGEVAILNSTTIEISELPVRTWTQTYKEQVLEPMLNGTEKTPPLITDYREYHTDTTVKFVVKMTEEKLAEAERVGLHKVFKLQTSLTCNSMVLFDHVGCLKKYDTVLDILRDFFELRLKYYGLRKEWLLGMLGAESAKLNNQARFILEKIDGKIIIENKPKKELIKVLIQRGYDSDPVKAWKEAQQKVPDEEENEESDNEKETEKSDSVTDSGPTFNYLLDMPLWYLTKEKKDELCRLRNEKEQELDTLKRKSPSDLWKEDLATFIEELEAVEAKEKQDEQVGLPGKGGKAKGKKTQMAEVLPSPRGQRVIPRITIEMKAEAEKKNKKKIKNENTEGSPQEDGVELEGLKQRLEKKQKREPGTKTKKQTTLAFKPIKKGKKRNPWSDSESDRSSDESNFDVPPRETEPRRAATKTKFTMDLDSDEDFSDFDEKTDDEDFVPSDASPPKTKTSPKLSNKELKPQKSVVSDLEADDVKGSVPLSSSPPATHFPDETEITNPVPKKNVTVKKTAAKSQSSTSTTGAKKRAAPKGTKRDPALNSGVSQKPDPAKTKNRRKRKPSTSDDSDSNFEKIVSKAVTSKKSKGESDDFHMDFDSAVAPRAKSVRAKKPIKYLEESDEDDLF
Description: Inhibition of recombinant human top2 alpha-mediated kDNA decatenation at 100 uM after 30 mins by agarose gel electrophoresis
Assay [2] has the same target. Kind of assay: Inhibition of recombinant human top2 alpha-mediated kDNA decatenation compound added post enzyme-DNA incubation by agarose gel electrophoresis.
For assay [3] the target is unchanged. Kind of assay: Inhibition of recombinant human top2 alpha-mediated kDNA decatenation compound added post enzyme-DNA incubation by agarose gel electrophoresis in presence of DTT.
Another assay deals with 786-0. Kind of assay: Cytotoxicity against human 786-0 cells assessed as growth inhibition by SRB assay. The assay is classed as functional, cell-based. Background: In SRB staining, fixed cells bind dye roughly in proportion to their protein.
Another assay has as its system MCF7. Kind of assay: Cytotoxicity against human MCF7 cells assessed as growth inhibition by SRB assay. The assay is classed as functional, cell-based.
Assay [4] addresses DNA topoisomerase 2-alpha (Homo sapiens) (UniProt P11388). Kind of assay: Inhibition of recombinant human top2 alpha-mediated kDNA decatenation at 25 uM after 30 mins by agarose gel electrophoresis.
Another assay has as its system UACC-62. Kind of assay: Cytotoxicity against human UACC62 cells assessed as growth inhibition by SRB assay. The assay is classed as functional, cell-based.
In assay [5] the target is T1, DNA topoisomerase 1 (Homo sapiens) (UniProt P11387).
T1 sequence (whole entry): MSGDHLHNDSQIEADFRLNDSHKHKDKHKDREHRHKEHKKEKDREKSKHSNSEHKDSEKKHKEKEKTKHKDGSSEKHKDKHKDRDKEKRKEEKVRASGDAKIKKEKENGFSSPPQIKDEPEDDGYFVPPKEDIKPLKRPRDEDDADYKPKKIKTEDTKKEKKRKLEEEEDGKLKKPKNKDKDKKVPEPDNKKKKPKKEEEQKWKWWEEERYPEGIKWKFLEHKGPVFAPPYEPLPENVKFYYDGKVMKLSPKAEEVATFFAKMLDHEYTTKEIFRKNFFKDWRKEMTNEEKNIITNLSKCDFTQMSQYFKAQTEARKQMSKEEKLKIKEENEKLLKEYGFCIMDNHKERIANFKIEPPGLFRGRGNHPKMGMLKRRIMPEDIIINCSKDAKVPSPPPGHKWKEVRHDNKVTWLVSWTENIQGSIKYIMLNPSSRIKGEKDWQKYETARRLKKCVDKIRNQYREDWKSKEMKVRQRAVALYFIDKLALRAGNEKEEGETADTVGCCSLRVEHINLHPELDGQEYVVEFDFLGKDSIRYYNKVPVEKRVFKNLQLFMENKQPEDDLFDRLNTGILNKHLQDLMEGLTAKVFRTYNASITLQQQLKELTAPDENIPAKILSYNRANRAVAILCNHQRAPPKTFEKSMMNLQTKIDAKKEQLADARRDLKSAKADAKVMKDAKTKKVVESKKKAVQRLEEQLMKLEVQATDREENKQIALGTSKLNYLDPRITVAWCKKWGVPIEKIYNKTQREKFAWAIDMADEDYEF
Kind of assay: Inhibition of recombinant human DNA top1-mediated relaxation of pBR322 plasmid at 25 uM after 30 mins by agarose gel electrophoresis.

Assay [6] concerns the target T1, DNA topoisomerase 1 (Homo sapiens). Kind of assay: Inhibition of recombinant human DNA top1-mediated relaxation of pBR322 plasmid at 100 uM after 30 mins by agarose gel electrophoresis.
Assay [7] has the same target. Kind of assay: Inhibition of recombinant human DNA top1-mediated relaxation of pBR322 plasmid at 1 uM after 30 mins by agarose gel electrophoresis.
In the next assay the test system is B16-F10. Kind of assay: Cytotoxicity against mouse B16F10 cells assessed as growth inhibition by SRB assay. The assay is classed as functional.
Assay [8] has as its target DNA topoisomerase 2-alpha (Homo sapiens) (UniProt P11388). Kind of assay: Inhibition of recombinant human top2 alpha-mediated kDNA decatenation at 1 uM after 30 mins by agarose gel electrophoresis.

What is called IC50 is the concentration that gives 50% inhibition. Usually GI50 stands for the concentration at which growth is held to half of that of the control.

Consider `COc1cc([C@@H]2c3cc4c(cc3[C@@H](O[C@@H]3O[C@@H]5CO[C@@H](C)O[C@H]5[C@H](O)[C@H]3O)[C@H]3COC(=O)[C@H]23)OCO4)cc(OC)c1O`, for which the inhibition entry in assay [1], in assay [2] and in assay [3] was “Active” each time.
In the case of `COc1cccc2[nH]c3c([C@H]4[C@H](C(C)(C)O)CC[C@@]4(O)CO)nccc3c12`, the IC50 in the assay on 786-0 was 0.22 µg/mL (≈ 0.594 µM); with MCF7, 1.8 µg/mL (≈ 4.86 µM); in the assay with UACC-62 it was 1.7 µg/mL (≈ 4.59 µM). Also, the inhibition result in assay [2], in assay [4], in assay [3] and in [5] was “Active” throughout.
In the case of `CCc1c2c(nc3ccc(OC(=O)N4CCC(N5CCCCC5)CC4)cc13)-c1cc3c(c(=O)n1C2)COC(=O)[C@]3(O)CC`, the inhibition result in assay [6] was “Active”.
Take `COc1cccc2[nH]c3c([C@H]4[C@H](C(C)(C)O)CC[C@]4(C)O)nccc3c12`: the GI50 with 786-0 turned out to be 3 µg/mL (≈ 8.46 µM); in the assay on MCF7, 3 µg/mL (≈ 8.46 µM); in the assay on B16-F10, 19.5 µg/mL (≈ 55 µM); in the assay with UACC-62, 2.5 µg/mL (≈ 7.05 µM). Also, the inhibition entry in assay [2], in assay [7], in [8] and in assay [3] was “Active” each time.
Turning to `COc1cccc2c1C(=O)c1c(O)c3c(c(O)c1C2=O)C[C@@](O)(C(=O)CO)C[C@@H]3O[C@H]1C[C@H](N)[C@H](O)[C@H](C)O1.Cl` [DOXORUBICIN HYDROCHLORIDE], the GI50 with 786-0 was determined as 0.43 µg/mL; in the assay with MCF7 it was 0.23 µg/mL; in the assay on B16-F10, 0.22 µg/mL; in the assay on UACC-62, 0.25 µg/mL.
